Test results reported in US20090117155A1, “TREATMENT OF HIV-1 BY MODULATION OF VPR ACTIVATION OF THE M-CSF PROMOTER” (priority 2006, published 2009).

What was measured:
M-CSF promoter = M-CSF promoter luciferase reporter (pGL3-M-CSF) in primary human macrophages; format: cell-based
Protocol: (§1) Peripheral blood mononuclear cells (PBMC) were isolated from heparinized whole blood or buffy coats acquired from healthy seronegative blood donors by density-gradient centrifugation (Histopaque-1017, Sigma-Aldrich, St. Louis, Mo.). CD14+ monocytes were isolated from prepared PBMC using the Miltenyi AutoMACS system (Miltenyi Biotec, Auburn, Calif.). Briefly, cells were incubated with anti-CD14 monoclonal antibody-coated microbeads (Miltenyi Biotec, Auburn, Calif.) at 4° C. for 15 minutes and run on an AutoMacs separator. […] Recovered CD14+ monocytes were used immediately in transfection experiments. For macrophage preparation, PBMC were incubated in RPMI 1640 (Invitrogen, Carlsbad, Calif.) containing 20% FBS, 10% human AB serum, 2 mM L-glutamine and penicillin (50 U/ml)/streptomycin (50 μg/ml) overnight at 37° C. Adherent cells were washed 3 times with phosphate-buffered saline (PBS), removed with cold PBS 0.02% EDTA and differentiated into macrophages for 6 days in DMEM supplemented with 10% human AB serum and 2 mM L-glutamine. THP1 cells were cultivated in RPMI 1640 supplemented with 10% FBS, 2 mM L-glutamine and penicillin (50 U/ml)/streptomycin (50 μg/ml) (=complete medium).
The M-CSF promoter (−1310/+48 bp) was amplified from human genomic DNA by PCR with the primers 5′-[…]-3′ (SEQ ID NO: 20) and 5′-[…] […]-3′ (SEQ ID NO: 21). […] Amplification consisted of 30 cycles of 30 s at 94° C., 30 s at 58° C., and 6 min at 72° C. All the constructs were verified by sequencing (Nucleic Acid Facility, Jefferson University, PA USA).
(§2) THP1 cells (2×106/transfection) were transiently transfected with Effecten reagent (Qiagen, Santa Clara, Calif.) using 1 μg of plasmid DNA, 8 μl enhancer and 10 μl effectene. Cells were incubated in complete medium for 24 hours in 6-well plates. Human primary CD 14+ cells were transfected using the Human Monocyte Nucleofector Kit (Amaxa, Gaithersburg, Md.) according to the manufacturer's instructions. Briefly, 5×10^6 CD 14+ cells were resuspended in 100 μl of nucleofector solution (Amaxa) with 5 μg of DNA and electroporated using the program Y-001. Cells were then transferred in 1.5 ml of Human Monocyte Nucleofector medium (Amaxa) in 24-well plates for 24 hours. Human macrophages were transfected using the Human Macrophage Nucleofector Kit (Amaxa) according to the manufacturer's specifications. In brief, 0.5×10^6 macrophages were resuspended in 100 μl of nucleofector solution (Amaxa) with 5 μg of DNA and electroporated using the program Y-010. Cells were incubated for 24 hours in advanced RPMI (Invitrogen, Carlsbad, Calif.) supplemented with 10% FBS and 2 mM L-glutamine in 12-well plates. One day after transfection, cells were harvested by centrifugation and cell pellets were resuspended in 200 μl of lysis buffer (Promega). Twenty microliters of cell lysate was assayed for luciferase activity using the Luciferase Assay System (Promega). The protein concentration was determined with the BCA Protein Assay Reagent (Pierce, Rockford, Ill.) and the luciferase activity was expressed in Relative Light Unit (RLU) per μg of protein.

M-CSF = M-CSF production in culture supernatants of primary human macrophages (ELISA); format: cell-based
Protocol: as §1, §2
M-CSF and IL-6 production in cell culture supernatants were assessed by ELISA according to the manufacturer's instructions (R&D systems, Minneapolis, Minn.).

HIV-1 LTR = conditions: Schafer et al., 2006; cited from earlier work
HIV-1 = conditions: Schafer et al., 2006; cited from earlier work
mammary tumorigenesis = conditions: Bcra1/p53-deficient mice, Poole et al., 2006; cited from earlier work
[1] = concentrations as high as 100 μM, in the absence of Vpr
[2] = primary macrophages co-transfected with pGL3-M-CSF and Vpr vector

IL-6: cytokine IL-6 used to treat primary macrophages for 24 hours
M-CSF transcription (M-CSF promoter; primary macrophages treated for 24 hours): 50.1±0.4 RLU/μg of protein

CC(=O)[C@H]1CC[C@H]2[C@@H]3CCC4=CC(=O)CC[C@]4(C)[C@H]3CC[C@]12C [progesterone]
effect on M-CSF promoter activity (M-CSF promoter; primary macrophages transfected with pGL3-M-CSF, different concentrations, no Vpr): no increase

CC#C[C@]1(O)CC[C@H]2[C@@H]3CCC4=CC(=O)CCC4=C3[C@@H](c3ccc(N(C)C)cc3)C[C@@]21C [RU486, mifepristone]
inhibition at 20 µM (M-CSF promoter; Homo sapiens, Primary macrophage, 20 μM, primary macrophages co-transfected with pGL3-M-CSF and Vpr vector, read-out: inhibition of Vpr-dependent M-CSF promoter activity): > 50% | effect on basal level of M-CSF promoter activity (M-CSF promoter; [1]): did not completely inhibit | effect on Vpr-dependent M-CSF promoter activity (M-CSF promoter; [2]): dose-dependent decrease | inhibition of the Vpr effect on M-CSF production (M-CSF; 50 μM, primary macrophages co-transfected with pGL3-M-CSF and Vpr vector): total inhibition | inhibition at 10 µM (M-CSF; Homo sapiens, Primary macrophage, 10 μM, primary macrophages co-transfected with pGL3-M-CSF and Vpr vector, read-out: inhibition of Vpr induced M-CSF production): > 50% | effect on basal level M-CSF production (M-CSF; [1]): did not completely inhibit | concentration required for inhibition of M-CSF induction by Vpr (M-CSF; primary human macrophages): approximately 10 μM | effect on Vpr-dependent M-CSF production (M-CSF; [2]): dose-dependent decrease | Vpr-induced transactivation of the HIV-1 LTR (HIV-1 LTR): inhibits | viral replication in PBMCs (HIV-1): inhibits | mammary tumorigenesis (mammary tumorigenesis): prevent mammary tumorigenesis
